# Patent US7446195B2, “High affinity thiophene-based and furan-based kinase ligands” (Schering Corporation, priority 2005, dated 2008)
# Target: CDK-2 (Homo sapiens, UniProt P24941)
# Test: CDK-2 inhibition (Table 1; fluorescence polarization displacement assay)
# Type: binding
# Settings: inhibitory effectiveness toward CDK-2
# Procedure: The affinity of lead inhibitors binding to CDK-2 and CDK-2/cyclin A were determined by measuring a Ki value using a fluorescence polarization displacement assay. The deacetylated form of compound BMS-250595 was reacted with Alexa Fluor 647 to generate a compound (BMS-Alexa Fluor647) that bound to both proteins and provided a signal for fluorescence polarization displacement. Binding assays were performed in a 384 well Costar NBS coated plate. A total volume of […] contained concentrations of CDK-2 or CDK-2/cyclin A at […], respectively. The concentration of BMS-Alexa Fluor647 was 50 nM. Serial dilutions of compounds were added to 12 wells. The final buffer concentration was 10 mM Hepes, pH 7.5, 150 mM NaCl, and 1 mM DTT. Samples were incubated at room temperature for 15 minutes and then read in an Analyst HT instrument using an excitation and emission wavelength of 580 and 680 nm, respectively. The […] curve fitting tool described by Zhang et al., 2004 (Zhang R., Mayhood T., Lipari P., Wang Y., Durkin D., Syto R., Gesell J., McNemar C., and Windsor W., Analytical Biochemistry 331 (2004) 138-146)
row,SMILES,IC50
1,CN(Cc1ccco1)C(=O)c1ccc(C(=O)Nc2ccc(-n3cncn3)cc2)s1 [Compound 102],≥ 40 µM
2,COc1ccc(NC(=O)c2ccc(C(=O)Nc3ccc(OCCN(C)C)cc3)s2)c(C)c1 [Compound 125],≥ 40 µM
3,COc1ccc(NC(=O)c2ccc(C(=O)Nc3ccc(N4CCOCC4)nc3)s2)c(C)c1 [Compound 133],≥ 40 µM
4,NS(=O)(=O)c1ccc(NC(=O)c2ccc(C(=O)Nc3ccc(-n4cncn4)cc3)s2)cc1 [Compound 118],≥ 40 µM
5,O=C(Nc1ccc(-n2cncn2)cc1)c1ccc(C(=O)N2CCN(c3ccccc3)CC2)s1 [Compound 117],≥ 40 µM
6,O=C(NCCN1CCNC1=O)c1ccc(C(=O)Nc2ccc(-n3cncn3)cc2)s1 [Compound 146],≥ 40 µM
7,CN(C)CCNC(=O)c1ccc(C(=O)Nc2ccc(-n3cncn3)c(F)c2)o1 [Compound 212],≥ 40 µM
8,O=C(Nc1ccc(C(=O)Nc2ccc(-n3cncn3)cc2)s1)c1ccccc1 [Compound 40],≤ 1 µM
9,COc1ccc(NC(=O)c2ccc(C(=O)N3CCC(Oc4cnccn4)CC3)s2)c(C)c1 [Compound 41],1 to 40 µM
10,O=C(NCC1CCCCC1)c1ccc(C(=O)Nc2ccc(-n3cncn3)cc2)s1 [Compound 106],≥ 40 µM
11,COc1ccc(NC(=O)c2ccc(C(=O)Nc3ccc(CN)cc3)s2)c(C)c1 [Compound 132],≥ 40 µM
12,COc1ccc(NC(=O)c2ccc(C(=O)Nc3ccc(-c4c(C)noc4C)cc3)s2)c(C)c1 [Compound 168],≥ 40 µM
13,CCCCN(C)C(=O)c1ccc(C(=O)Nc2ccc(-n3cncn3)cc2)s1 [Compound 86],≥ 40 µM
14,CC(CN(C)C)NC(=O)c1ccc(C(=O)Nc2ccc(-n3cncn3)cc2)s1 (stereo not shown) [Compound 95],≥ 40 µM
15,COc1ccc(C(=O)Nc2ccc(C(=O)N3CCC(Oc4cnccn4)CC3)o2)cc1 [Compound 182],≥ 40 µM
16,COc1ccc(NC(=O)c2ccc(C(=O)N3CCC(c4ccncc4)C3)s2)c(C)c1 (stereo not shown) [Compound 50],1 to 40 µM
17,O=C(NCCN1CCCCC1)c1ccc(C(=O)Nc2ccc(-n3cncn3)cc2)s1 [Compound 144],≥ 40 µM
18,COc1ccc(N(C)C(=O)c2ccc(C(=O)Nc3ccc(-n4cncn4)cc3)s2)c(C)c1 [Compound 72],1 to 40 µM
19,COc1ccc(C(=O)Nc2ccc(C(=O)Nc3ccc(-c4nc[nH]n4)c(F)c3)s2)c(C)c1 [Compound 8],≤ 1 µM
20,COC(=O)c1ccc(NC(=O)c2ccc(C(=O)Nc3ccc(OC)cc3C)s2)cc1 [Compound 126],≥ 40 µM
21,C[C@@H](NC(=O)c1ccc(C(=O)Nc2ccc(-n3cncn3)c(F)c2)o1)C1CCCCC1 [Compound 43],1 to 40 µM
22,COC[C@H](C)NC(=O)c1ccc(C(=O)Nc2ccc(-n3cncn3)cc2)s1 [Compound 88],≥ 40 µM
23,COc1ccc(C(=O)Nc2ccc(C(=O)Nc3ccc(-n4cncn4)cc3)o2)c(C)c1 [Compound 186],≥ 40 µM
24,COc1ccc(NC(=O)c2ccc(C(=O)N3CCC(c4ccccn4)C3)s2)c(C)c1 (stereo not shown) [Compound 71],1 to 40 µM
25,O=C(NCc1ccncc1)c1ccc(C(=O)Nc2ccc(-n3cncn3)cc2)s1 [Compound 98],≥ 40 µM

# Results, then the compound that gave them:
row,IC50,SMILES
1,≥ 40 µM,CN1CCC(NC(=O)c2ccc(C(=O)Nc3ccc(-n4cncn4)c(F)c3)o2)CC1 [Compound 214]
2,≥ 40 µM,Cc1cc(NC(=O)c2ccc(C(=O)Nc3ccc(-n4cncn4)cc3)s2)ccc1F [Compound 142]
3,1 to 40 µM,COc1ccc(NC(=O)c2ccc(C(=O)Nc3ccc(-n4cncn4)cc3)s2)cc1Cl [Compound 61]
4,≥ 40 µM,O=C(Nc1ccc(-n2cncn2)cc1)c1ccc(C(=O)NC2CCC2)s1 [Compound 82]
5,≥ 40 µM,COc1ccccc1NC(=O)c1ccc(C(=O)Nc2ccc(-n3cncn3)c(F)c2)s1 [Compound 206]
6,≤ 1 µM,Cc1cc(CN2CCOCC2)ccc1NC(=O)c1ccc(C(=O)Nc2ccc(-n3cncn3)cc2)s1 [Compound 16]
7,≥ 40 µM,COc1ccc(NC(=O)c2ccc(C(=O)Nc3ccc4c(c3)OCO4)s2)c(C)c1 [Compound 130]
8,1 to 40 µM,O=C(Nc1ccc(-n2cncn2)c(F)c1)c1ccc(C(=O)Nc2ccccc2C(F)(F)F)s1 [Compound 46]
9,≥ 40 µM,O=C(Nc1ccc(-n2cncn2)cc1)c1ccc(C(=O)NC2CCCCC2)s1 [Compound 91]
10,≥ 40 µM,COc1ccc(NC(=O)c2ccc(C(=O)Nc3ccc(-n4cncn4)cc3)s2)cc1OC [Compound 151]
11,≥ 40 µM,COc1ccc(NC(=O)c2ccc(C(=O)Nc3ccc4nc(C)ccc4c3)s2)c(C)c1 [Compound 170]
12,≥ 40 µM,COc1ccc(NC(=O)c2ccc(C(=O)Nc3ccc(-c4csnn4)cc3)s2)c(C)c1 [Compound 127]
13,1 to 40 µM,Cc1cc(NCCN(C)C)ccc1NC(=O)c1ccc(C(=O)Nc2ccc(-n3cncn3)cc2)s1 [Compound 44]
14,1 to 40 µM,Cn1nc(-c2ccccc2)cc1NC(=O)c1ccc(C(=O)Nc2ccc(-n3cncn3)cc2)s1 [Compound 66]
15,≤ 1 µM,Cc1cc(N(C)CCN(C)C)ccc1NC(=O)c1ccc(C(=O)Nc2ccc(-n3cncn3)cc2)s1 [Compound 36]
16,≤ 1 µM,Cc1cc(N[C@H]2CCNC2)ccc1NC(=O)c1ccc(C(=O)Nc2ccc(-n3cncn3)cc2)s1 [Compound 38]
17,≥ 40 µM,C[C@@H](NC(=O)c1ccc(C(=O)Nc2ccc(-n3cncn3)cc2)s1)C1CCCCC1 [Compound 112]

row,IC50,SMILES
1,≤ 1 µM,COc1ccc(NC(=O)c2ccc(C(=O)Nc3ccc(-n4cncn4)c(F)c3)s2)c(C)c1 [Compound 17]
2,≥ 40 µM,Cc1ccnc(NC(=O)c2ccc(C(=O)Nc3ccc(-n4cncn4)cc3)s2)c1 [Compound 100]
3,1 to 40 µM,CC(=O)N1CCC(NC(=O)c2ccc(C(=O)Nc3ccc(-n4cncn4)cc3)s2)CC1 [Compound 57]
4,≥ 40 µM,COc1ccc(NC(=O)c2ccc(C(=O)Nc3ccc(-c4ncn(C)n4)cc3)s2)c(C)c1 [Compound 179]
5,1 to 40 µM,COc1cccc(NC(=O)c2ccc(C(=O)Nc3ccc(-n4cncn4)cc3)s2)c1OC [Compound 59]
6,≥ 40 µM,COc1ccc(NC(=O)c2ccc(C(=O)Nc3ccc(Cn4ccnc4)cc3)s2)c(C)c1 [Compound 177]
7,≥ 40 µM,COc1ccc(NC(=O)c2ccc(C(=O)Nc3ccc(-n4cncn4)cc3)s2)cc1O [Compound 167]
8,≥ 40 µM,O=C(Nc1ccc(-n2cncn2)cc1)c1ccc(C(=O)NC2CC2)s1 [Compound 80]
9,≥ 40 µM,COc1ccc(NC(=O)c2ccc(C(=O)Nc3ccc4nccnc4c3)s2)c(C)c1 [Compound 172]
10,≥ 40 µM,CN1CCN(c2ccccc2NC(=O)c2ccc(C(=O)Nc3ccc(-n4cncn4)c(F)c3)s2)CC1 [Compound 209]
11,≤ 1 µM,Cc1cc(CN2CCOCC2)ccc1NC(=O)c1ccc(C(=O)Nc2ccc(-n3cncn3)c(F)c2)s1 [Compound 20]
12,≥ 40 µM,Cc1cnc(NC(=O)c2ccc(C(=O)Nc3ccc(-n4cncn4)cc3)s2)s1 [Compound 155]
13,≤ 1 µM,Cc1cc(N[C@H]2CCNC2)ccc1NC(=O)c1ccc(C(=O)Nc2ccc(-n3cncn3)c(F)c2)s1 [Compound 15]
14,≥ 40 µM,COc1ccc(NC(=O)c2ccc(C(=O)Nc3ccc4c(cnn4C)c3)s2)c(C)c1 [Compound 171]
15,≥ 40 µM,O=C(Nc1ccc(-n2cncn2)cc1)c1ccc(C(=O)Nc2cccc(-c3cnco3)c2)s1 [Compound 162]
16,≥ 40 µM,O=C(Nc1ccc(-n2cncn2)cc1)c1ccc(C(=O)Nc2ccc3ncsc3c2)s1 [Compound 161]
